{"source": "paper PMC12040969", "about": "“Design, synthesis, in silico studies, and apoptotic antiproliferative activity of novel thiazole-2-acetamide derivatives as tubulin polymerization inhibitors” (Frontiers in Chemistry, 2025)", "key": {"tubulin": {"tested_on": "tubulin", "assay": "Tubulin polymerization inhibition assay (Cytoskeleton kit);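 on all read-outs here: Cell-free tubulin polymerization read by fluorescent reporter enhancement over a 30 min reaction, with the compound-free kit control taken as 100% activity and inhibition relative to it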", "conditions": "for Tub. enzyme inhibition assay %inhibition / Tub %inh: 30 min; for Tub. enzyme inhibition assay %inhibition: codes 522-537 run; for Tub. enzyme inhibition assay K. Activity: control = 120, codes 522-537 run; for IC50: read-out: Tubulin inhibition IC50 ± SEM, triplicate for each tested concentration; for Tub. (IC50) IC50±SD: supplement raw data, lab codes; for Tub %inh: YB-EGY run; for Tub K.Activity: EC = 120, YB-EGY run"}, "[1]": {"assay": "Cell viability assay (MTT), normal cells", "assay_type": "cell-based", "conditions": "human, MCF-10A normal mammary gland epithelial cells, four-day incubation", "protocol": "The impact of novel compounds 10a-o and 13a-e on cell viability was examined using the MCF-10A (human mammary gland epithelial) normal cell line. The MTT test was employed to assess the cell viability of the novel compounds after a four-day incubation with MCF-10A cells ([El-Sherief et al., 2019]; [Ramadan et al., 2020]).\nThe effects of compounds 10a-o and 13a-e on cell viability were assessed using the human mammary gland epithelial normal cell line (MCF-10A). The MTT assay assessed the cell viability of compounds 10a-o and 13a-e following a four-day incubation with MCF-10A cells ([El-Sherief et al., 2019]; [Ramadan et al., 2020]). Check Supplementary Appendix A for additional information.\n4.2. Biological evaluation\n4.2.1 Cell Viability assay (MTT assay)\nMTT assay was performed to investigate the effect of the synthesized compounds on mammary epithelial cells (MCF-10A). The cells were propagated in medium consisting of Ham's F-12 medium/ Dulbecco's modified Eagle's medium (DMEM) (1:1) supplemented with 10% foetal calf serum, 2 mM glutamine, insulin (10 μg/mL), hydrocortisone (500 ng/mL) and epidermal growth factor (20 ng/mL). Trypsin ethylenediamine tetra acetic acid (EDTA) was used to passage the cells after every 2-3 days. 96-well flat-bottomed cell culture plates were used to seed the cells at a density of 10^4 cells mL-1. The medium was aspirated from all the wells of culture plates after 24 h followed by the addition of synthesized compounds (in 200 μL medium to yield a final concentration of 0.1% (v/v) dimethyl sulfoxide) into individual wells of the plates.\nFour wells were designated to a single compound. The plates were allowed to incubate at 37°C for 96 h. Afterwards, the medium was aspirated and 3-[4,5-dimethylthiazol-2-yl]-2,5-diphenyltetrazolium bromide (MTT) (0.4 mg/mL) in medium was added to each well and subsequently incubated for 3 h. The medium was aspirated and 150 μL dimethyl sulfoxide (DMSO) was added to each well. The plates were vortexed followed by the measurement of absorbance at 540 nm on a microplate reader. The results were presented as inhibition (%) of proliferation in contrast to controls comprising 0.1%"}}}
{"smiles": "COc1ccc(/C=C/C(=O)c2sc(SCC(=O)Nc3nc(-c4ccc(Cl)cc4)cs3)nc2C)cc1", "note": "[Compound 10j, (E)-N-(4-(4-chlorophenyl)thiazol-2-yl)-2-((5-(3-(4-methoxyphenyl)acryloyl)-4-methylthiazol-2-yl)thio)acetamide]", "values": [{"measurement": "Tub. enzyme inhibition assay %inhibition", "setting": "tubulin; conc 0.01 (unit not given)", "value": 2.01, "unit": "%"}, {"measurement": "Tub. enzyme inhibition assay K. Activity", "setting": "tubulin; conc 0.01 (unit not given)", "value": 117.59}, {"measurement": "Tub. enzyme inhibition assay %inhibition", "setting": "tubulin; conc 0.1 (unit not given)", "value": 7.08, "unit": "%"}, {"measurement": "Tub. enzyme inhibition assay K. Activity", "setting": "tubulin; conc 0.1 (unit not given)", "value": 111.51}, {"measurement": "Tub. enzyme inhibition assay %inhibition", "setting": "tubulin; conc 1 (unit not given)", "value": 22.6, "unit": "%"}, {"measurement": "Tub. enzyme inhibition assay K. Activity", "setting": "tubulin; conc 1 (unit not given)", "value": 92.923}, {"measurement": "Tub. enzyme inhibition assay %inhibition", "setting": "tubulin; conc 10 (unit not given)", "value": 45.7, "unit": "%"}, {"measurement": "Tub. enzyme inhibition assay K. Activity", "setting": "tubulin; conc 10 (unit not given)", "value": 65.175}, {"measurement": "Tub. enzyme inhibition assay %inhibition", "setting": "tubulin; conc 100 (unit not given)", "value": 75.5, "unit": "%"}, {"measurement": "Tub. enzyme inhibition assay K. Activity", "setting": "tubulin; conc 100 (unit not given)", "value": 29.401}, {"measurement": "IC50", "setting": "tubulin", "value": "20.6 ± 0.75", "unit": "µM"}, {"measurement": "Tub. (IC50) IC50±SD", "setting": "tubulin", "value": "11.14 ± 0.41", "unit": "µg/mL"}, {"measurement": "viability at 96 h, 50 µM", "setting": "[1]", "value": 93, "unit": "%"}]}
{"smiles": "Cc1ccc(-c2csc(NC(=O)CSc3nc(C)c(C(=O)/C=C/c4ccccc4)s3)n2)cc1", "note": "[Compound 10k, (E)-2-((5-cinnamoyl-4-methylthiazol-2-yl)thio)-N-(4-(p-tolyl)thiazol-2-yl)acetamide]", "values": [{"measurement": "Tub. enzyme inhibition assay %inhibition", "setting": "tubulin; conc 0.01 (unit not given)", "value": 0.28, "unit": "%"}, {"measurement": "Tub. enzyme inhibition assay K. Activity", "setting": "tubulin; conc 0.01 (unit not given)", "value": 119.66}, {"measurement": "Tub. enzyme inhibition assay %inhibition", "setting": "tubulin; conc 0.1 (unit not given)", "value": 5.09, "unit": "%"}, {"measurement": "Tub. enzyme inhibition assay K. Activity", "setting": "tubulin; conc 0.1 (unit not given)", "value": 113.89}, {"measurement": "Tub. enzyme inhibition assay %inhibition", "setting": "tubulin; conc 1 (unit not given)", "value": 16.5, "unit": "%"}, {"measurement": "Tub. enzyme inhibition assay K. Activity", "setting": "tubulin; conc 1 (unit not given)", "value": 100.23}, {"measurement": "Tub. enzyme inhibition assay %inhibition", "setting": "tubulin; conc 10 (unit not given)", "value": 36.5, "unit": "%"}, {"measurement": "Tub. enzyme inhibition assay K. Activity", "setting": "tubulin; conc 10 (unit not given)", "value": 76.175}, {"measurement": "Tub. enzyme inhibition assay %inhibition", "setting": "tubulin; conc 100 (unit not given)", "value": 71.9, "unit": "%"}, {"measurement": "Tub. enzyme inhibition assay K. Activity", "setting": "tubulin; conc 100 (unit not given)", "value": 33.707}, {"measurement": "IC50", "setting": "tubulin", "value": "47.8 ± 1.74", "unit": "µM"}, {"measurement": "Tub. (IC50) IC50±SD", "setting": "tubulin", "value": "23.48 ± 0.86", "unit": "µg/mL"}, {"measurement": "viability at 96 h, 50 µM", "setting": "[1]", "value": 90, "unit": "%"}]}
{"smiles": "Cc1ccc(-c2csc(NC(=O)CSc3nc(C)c(C(=O)/C=C/c4ccc(Cl)cc4)s3)n2)cc1", "note": "[Compound 10l, (E)-2-((5-(3-(4-chlorophenyl)acryloyl)-4-methylthiazol-2-yl)thio)-N-(4-(p-tolyl)thiazol-2-yl)acetamide]", "values": [{"measurement": "Tub. enzyme inhibition assay %inhibition", "setting": "tubulin; conc 0.01 (unit not given)", "value": 1.85, "unit": "%"}, {"measurement": "Tub. enzyme inhibition assay K. Activity", "setting": "tubulin; conc 0.01 (unit not given)", "value": 117.78}, {"measurement": "Tub. enzyme inhibition assay %inhibition", "setting": "tubulin; conc 0.1 (unit not given)", "value": 10.9, "unit": "%"}, {"measurement": "Tub. enzyme inhibition assay K. Activity", "setting": "tubulin; conc 0.1 (unit not given)", "value": 106.95}, {"measurement": "Tub. enzyme inhibition assay %inhibition", "setting": "tubulin; conc 1 (unit not given)", "value": 24.6, "unit": "%"}, {"measurement": "Tub. enzyme inhibition assay K. Activity", "setting": "tubulin; conc 1 (unit not given)", "value": 90.43}, {"measurement": "Tub. enzyme inhibition assay %inhibition", "setting": "tubulin; conc 10 (unit not given)", "value": 49.3, "unit": "%"}, {"measurement": "Tub. enzyme inhibition assay K. Activity", "setting": "tubulin; conc 10 (unit not given)", "value": 60.835}, {"measurement": "Tub. enzyme inhibition assay %inhibition", "setting": "tubulin; conc 100 (unit not given)", "value": 79.5, "unit": "%"}, {"measurement": "Tub. enzyme inhibition assay K. Activity", "setting": "tubulin; conc 100 (unit not given)", "value": 24.585}, {"measurement": "IC50", "setting": "tubulin", "value": "13.9 ± 0.51", "unit": "µM"}, {"measurement": "Tub. (IC50) IC50±SD", "setting": "tubulin", "value": "7.331 ± 0.27", "unit": "µg/mL"}, {"measurement": "viability at 96 h, 50 µM", "setting": "[1]", "value": 89, "unit": "%"}]}
{"smiles": "Cc1ccc(/C=C/C(=O)c2sc(SCC(=O)Nc3nc(-c4ccc(C)cc4)cs3)nc2C)cc1", "note": "[Compound 10n, (E)-2-((4-methyl-5-(3-(p-tolyl)acryloyl)thiazol-2-yl)thio)-N-(4-(p-tolyl)thiazol-2-yl)acetamide]", "values": [{"measurement": "Tub. enzyme inhibition assay %inhibition", "setting": "tubulin; conc 0.01 (unit not given)", "value": 2.01, "unit": "%"}, {"measurement": "Tub. enzyme inhibition assay K. Activity", "setting": "tubulin; conc 0.01 (unit not given)", "value": 117.59}, {"measurement": "Tub. enzyme inhibition assay %inhibition", "setting": "tubulin; conc 0.1 (unit not given)", "value": 8.94, "unit": "%"}, {"measurement": "Tub. enzyme inhibition assay K. Activity", "setting": "tubulin; conc 0.1 (unit not given)", "value": 109.27}, {"measurement": "Tub. enzyme inhibition assay %inhibition", "setting": "tubulin; conc 1 (unit not given)", "value": 26.1, "unit": "%"}, {"measurement": "Tub. enzyme inhibition assay K. Activity", "setting": "tubulin; conc 1 (unit not given)", "value": 88.73}, {"measurement": "Tub. enzyme inhibition assay %inhibition", "setting": "tubulin; conc 10 (unit not given)", "value": 49.9, "unit": "%"}, {"measurement": "Tub. enzyme inhibition assay K. Activity", "setting": "tubulin; conc 10 (unit not given)", "value": 60.139}, {"measurement": "Tub. enzyme inhibition assay %inhibition", "setting": "tubulin; conc 100 (unit not given)", "value": 76.7, "unit": "%"}, {"measurement": "Tub. enzyme inhibition assay K. Activity", "setting": "tubulin; conc 100 (unit not given)", "value": 27.908}, {"measurement": "IC50", "setting": "tubulin", "value": "16 ± 0.59", "unit": "µM"}, {"measurement": "Tub. (IC50) IC50±SD", "setting": "tubulin", "value": "8.075 ± 0.3", "unit": "µg/mL"}, {"measurement": "viability at 96 h, 50 µM", "setting": "[1]", "value": 89, "unit": "%"}]}
{"smiles": "Cc1nc(SCC(=O)Nc2nccs2)sc1C(=O)/C=C/c1ccccc1", "note": "[Compound 13a, (E)-2-((5-cinnamoyl-4-methylthiazol-2-yl)thio)-N-(thiazol-2-yl)acetamide]", "values": [{"measurement": "Tub %inh", "setting": "tubulin; conc 0.1 (unit not given)", "value": 5.68, "unit": "%"}, {"measurement": "Tub K.Activity", "setting": "tubulin; conc 0.1 (unit not given)", "value": 113.18}, {"measurement": "Tub %inh", "setting": "tubulin; conc 1 (unit not given)", "value": 16.6, "unit": "%"}, {"measurement": "Tub K.Activity", "setting": "tubulin; conc 1 (unit not given)", "value": 100.09}, {"measurement": "Tub %inh", "setting": "tubulin; conc 10 (unit not given)", "value": 32.4, "unit": "%"}, {"measurement": "Tub K.Activity", "setting": "tubulin; conc 10 (unit not given)", "value": 81.141}, {"measurement": "Tub %inh", "setting": "tubulin; conc 50 (unit not given)", "value": 62.4, "unit": "%"}, {"measurement": "Tub K.Activity", "setting": "tubulin; conc 50 (unit not given)", "value": 45.076}, {"measurement": "Tub %inh", "setting": "tubulin; conc 100 (unit not given)", "value": 78.7, "unit": "%"}, {"measurement": "Tub K.Activity", "setting": "tubulin; conc 100 (unit not given)", "value": 25.608}, {"measurement": "IC50", "setting": "tubulin", "value": "15.8 ± 0.48", "unit": "µM"}, {"measurement": "viability at 96 h, 50 µM", "setting": "[1]", "value": 89, "unit": "%"}]}
